Entries after “also recorded” stand apart in the source; their conditions may differ.
Assays:
[1] = target: T1, γ-secretase (Homo sapiens, UniProt P49768); assay: Analysis of CTFγ and βAPP CTFs in membrane fractions of inhibitor-treated HEK 293 cells stably transfected with swAPP (immunoprecipitation/immunoblotting with antibody 6687); type: cell-based; details: increasing concentrations of DAPT for 4 h
T1 construct: HEK 293 cells stably transfected with swAPP were treated with the indicated concentrations of DAPT for 4 h; endogenous in cells; host or cells: HEK 293 cells stably transfected with swAPP695 (only the substrate is transfected; the γ-secretase is the cells' own)
Procedure: FIG. 1: Identification of in vivo produced CTFγ in human cells and mouse brain according to Example 1: (A) Membrane fractions of HEK 293 cells stably transfected with Swedish mutant βAPP695 (swAPP) were analyzed by combined immunoprecipitation/immunoblotting with antibody 6687 to the C-terminus of βAPP. Three βAPP CTFs were detected (C99 (=CTFβ), C83 (=CTFα), and the approximately 6 kDa CTFγ). The same βAPP CTFs including the approximately 6 kDa CTFγ were also observed by immunoblotting with antibody 6687 in mouse brain. (B) The γ-secretase inhibitor DAPT inhibits CTFγ production. HEK 293 cells stably transfected with swAPP were treated with the indicated concentrations of DAPT for 4 h. Upper and middle panel: Membrane fractions were prepared and analyzed for βAPP CTFs by combined immunoprecipitation/immunoblotting with antibody 6687. […] Lower panel: Conditioned media were analyzed for secreted Aβ by combined immunoprecipitation/immunoblotting with antibodies 3926/6E10. […] (C) CTFγ production is dependent on biologically active presenilins. Membrane fractions from control cells expressing PS1 wt or cells stably expressing PS1 D385N were analyzed by combined immunoprecipitation/immunoblotting with antibody 6687. […]
CTFγ was analyzed by combined immunoprecipitation/westernblotting with antibody 6687 of membrane extracts from stably transfected HEK 293 cells or from mouse brain. […]

[2] = target: T1, γ-secretase; assay: Analysis of secreted Aβ in conditioned media of HEK 293 swAPP cells (immunoprecipitation/immunoblotting with antibodies 3926/6E10); type: cell-based; details: DAPT for 4 h, FIG. 1B lower panel
Procedure: FIG. 1: Identification of in vivo produced CTFγ in human cells and mouse brain according to Example 1: (A) Membrane fractions of HEK 293 cells stably transfected with Swedish mutant βAPP695 (swAPP) were analyzed by combined immunoprecipitation/immunoblotting with antibody 6687 to the C-terminus of βAPP. Three βAPP CTFs were detected (C99 (=CTFβ), C83 (=CTFα), and the approximately 6 kDa CTFγ). The same βAPP CTFs including the approximately 6 kDa CTFγ were also observed by immunoblotting with antibody 6687 in mouse brain. (B) The γ-secretase inhibitor DAPT inhibits CTFγ production. HEK 293 cells stably transfected with swAPP were treated with the indicated concentrations of DAPT for 4 h. Upper and middle panel: Membrane fractions were prepared and analyzed for βAPP CTFs by combined immunoprecipitation/immunoblotting with antibody 6687. […] Lower panel: Conditioned media were analyzed for secreted Aβ by combined immunoprecipitation/immunoblotting with antibodies 3926/6E10. […] Membrane fractions from control cells expressing PS1 wt or cells stably expressing PS1 D385N were analyzed by combined immunoprecipitation/immunoblotting with antibody 6687. […]
Aβ was immunoprecipitated from conditioned media collected for 4 h with antibody 3926, separated on Tris-Tricine gels and detected by immunoblotting with antibody 6E10 using a chemiluminescent detection system (Tropix, USA).

[3] = system: γ-secretase; assay: In vitro generation of CTFγ from membrane preparations of HEK 293 cells stably transfected with swAPP (immunoblotting with antibody 6687); type: biochemical, human; details: 250 nM DAPT
Procedure: FIG. 2: In vitro generation of CTFγ according to Example 1: (A) Time dependent in vitro production of CTFγ. Membrane preparations were incubated at 37° C. for the indicated time points. The reaction mixtures were then separated in a soluble fraction (S100; lower panel) and a pellet fraction (P100; upper panel) by ultracentrifugation. These fractions were immunoblotted with antibody 6687. Note the selective accumulation of CTFγ in the S100(lower panel) fraction after 1-2 h incubation time. Very minor amounts of CTFγ were detected in the P100 fraction, which may be due to sticking of the highly hydrophobic CTFγ to membranes or to contamination of the P100 fraction with minor amounts of soluble proteins. (B) Two independent γ-secretase inhibitors (DAPT and “Compound 1”) inhibit the in vitro production of CTFγ. Membrane preparations were incubated with (+) or without (−) 250 nM DAPT (left panel) or 50 μM CM256 (right panel). The S100 fractions of the reaction mixtures were immunoblotted with antibody 6687. […]
CTFγ was generated in vitro from membrane preparations of HEK 293 cells stably transfected with swAPP following previously described procedures (McLendon et al., 2000; Pinnix et al., 2001). […] Following SDS-PAGE on 10-20% Tris-Tricine gels (Invitrogen) samples were analyzed for CTFγ by immunoblotting with antibody 6687.

In the case of `C[C@H](NC(=O)Cc1cc(F)cc(F)c1)C(=O)N[C@H](C(=O)OC(C)(C)C)c1ccccc1` [DAPT, N-[N-(3,5-difluorophenacetyl)-L-alanyl]-S-phenylglycin t-butyl ester], the CTFγ generation ([1]; FIG. 1B middle panel) is reported as “significant block of CTFγ generation; also recorded: dose dependent inhibition of CTFγ generation”, the “CTFβ and CTFα levels” value ([1]; FIG. 1B upper panel) is reported as “build up of CTFβ and CTFα; also recorded: increase of βAPP CTFβ and CTFα” and the “secreted Aβ generation” value [2] is reported as “dose dependent inhibition; also recorded: severely reduced Aβ production”. The “in vitro CTFγ generation” value ([3]; membrane preparations at 37° C., S100 fraction, FIG. 2B left panel) was “significantly reduce CTFγ generation; also recorded: efficiently reduced in vitro generation of CTFγ” and the “remaining in vitro CTFγ production” value ([3]; membranes from cells expressing the inactive PS1 D385N mutation, FIG. 2D) was “reduces the remaining in vitro CTFγ production; also recorded: further reduced”.

— patent publication US20030022251A1, “Gamma-secretase in vitro screening assay” (Boehringer Ingelheim Pharma KG, priority 2001, published 2003)
